Data on 1 compound can be found in PMC5190008, “BO-1055, a novel DNA cross-linking agent with remarkable low myelotoxicity shows potent activity in sarcoma models” (Oncotarget, 2016).

In this assay the test system is A673 cells. The experiment in a line: Annexin V-APC/7-AAD apoptosis flow cytometry. The conditions noted are these: A673, 48 h, 1μM. In kind it is cell-based, human. The source says: In order to quantify the apoptosis ratio in A673 cells treated with BO-1055 we performed Annexin V-APC/7-AAD staining assays. Early apoptosis was defined as the presence of Annexin V-positive and 7-AAD-negative cells. Late apoptosis was defined as Annexin V-positive and 7-AAD-positive cells. Total percent apoptosis was defined as the sum of early and late apoptotic cells as a percentage of the total cell number. BO-1055 induces apoptosis in the A673 cell line in a time-concentration dependent manner (Figure 3B). Around 50 % of treated cells entered apoptosis after 48 h at concentrations of 1μM.
Cell viability and apoptosis were determined using 7-AAD (BD Pharmingen, San Diego, CA) and Annexin V-APC (BD Pharmingen, San Diego, CA) staining according to the instructions provided by the manufacturer and as previously published. Cell cycle fractions were determined by propidium iodide nuclear staining. Briefly, cells were harvested, washed in PBS, fixed with 70% ethanol, and incubated with propidium iodide/RNase buffer (BD Biosciences, San Diego, CA) for 15 minutes at room temperature. Data was collected on BD LSR Fortessa fluorescence-activated cell analyzer using BD FACS Diva software and analyzed using FlowJo version 9.6 software (Tree Star, Inc. Ashland, OR). Cell cycle analysis was done by applying the Dean/Jett/Fox cell cycle model using FlowJo software.
(In general: A flow cytometer gives signals particle by particle.)

Each structure is given as a SMILES string.

Consider `CN(C)CCNC(=O)c1cccc(NC(=O)Nc2ccc(N(CCCl)CCCl)cc2)c1` [BO-1055], for which the “treated cells entering apoptosis” value was “Around 50%”.
